Assay results as given in ChEMBL document CHEMBL1157176, “Total syntheses of (+/-)-ovalicin, C4(S *)-isomer, and its C5-analogs and anti-trypanosomal activities” (Bioorg Med Chem, 2008).
Activity calls are given as the source filed them. The calls are words filed in the database; no cut-off is given here.

Columns and labels:
Trypanosoma brucei = experiment: Antitrypanosomal activity against Trypanosoma brucei 427 after 48 hrs by luciferase assay; type: functional, organism-based; conditions: Trypanosoma brucei, 427, 48 h
HL-60 = experiment: Antiproliferative activity against human HL60 cells; type: functional, cell-based

Structure (SMILES) | IC50 (Trypanosoma brucei) | Activity (HL-60)
CO[C@H]1C(=O)[C@]2(CC[C@@H]1OC(=O)c1ccccc1)CO2 (relative stereo) | 47.3 µM | 
CO[C@@H]1[C@H](O[Si](C)(C)C(C)(C)C)CC[C@]2(CO2)[C@@]1(O)/C(C)=C/CC=C(C)C (relative stereo) | 0.4 µM | 
O=C(O[C@@H]1CC[C@]2(CO2)[C@@H](O)[C@H]1O)c1ccccc1 (relative stereo) | 0.72 µM | 
CO[C@@H]1C(=O)CC[C@]2(CO2)[C@]1(O)[C@@]1(C)O[C@@H]1CC=C(C)C (relative stereo) |  | Active
CO[C@@H]1[C@@H](OC(=O)c2ccccc2)CC[C@]2(CO2)[C@]1(O)/C(C)=C/CC=C(C)C (relative stereo) | 4.2 µM | 
CO[C@@H]1[C@]2(CC[C@H](O[Si](C)(C)C(C)(C)C)[C@@]1(O)/C(C)=C/CC=C(C)C)CO2 (relative stereo) | 0.28 µM | 
O=C(O[C@H]1CC[C@]2(CO2)[C@H](O)[C@@H]1O)c1ccccc1 (relative stereo) | 325 µM | 
CO[C@@H]1C(=O)CC[C@]2(CO2)[C@]1(O)/C(C)=C/CC=C(C)C (relative stereo) | 41.5 µM | 
